From ChEMBL document CHEMBL1201862, “PubChem BioAssay data set” (2004)
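Briefly, cells in 96-well plates were exposed to five compound concentrations for 48 h, and endpoints were estimated by linear interpolation. GI50 = concentration required for 50% inhibition of growth.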 Active and inactive are the calls of the source. Rule as the data show it: active = GI50 up to about 1.1 µM and inactive = higher.

What was measured:
Experiment in all cases: growth of human tumour cells (NCI), 48 h
DLD-1 = test system: DLD-1
DMS-114 = test system: DMS-114
DMS-273 = test system: DMS-273
HOP-18 = test system: HOP-18
LXFL 529 = test system: LXFL 529
M19-MEL = test system: M19-MEL
SNB-78 = test system: SNB-78
RXF 631 = test system: RXF 631
XF498 = test system: XF498

Measured: GI50

Oc1ncnc2c1nnn2CCCCCCCCCCCCn1nnc2c(O)ncnc21
inactive: DLD-1 > 91.2 µM | DMS-114 7.06 µM | DMS-273 27.5 µM | HOP-18 24.2 µM | LXFL 529 33.6 µM | M19-MEL > 100 µM | SNB-78 19.2 µM

O=NN(CCCl)C(=O)N[C@H]1CC[C@@H](C(=O)O)CC1
inactive: DLD-1 > 100 µM | DMS-114 52.7 µM | DMS-273 > 100 µM | HOP-18 > 69.5 µM | LXFL 529 > 100 µM | M19-MEL > 100 µM | RXF 631 > 100 µM | SNB-78 > 100 µM | XF498 > 100 µM

CCCCCCCCCC(=O)Oc1cccc2onc(C)c12
inactive: DLD-1 > 100 µM | DMS-114 > 100 µM | DMS-273 > 100 µM | HOP-18 > 100 µM | LXFL 529 > 100 µM | M19-MEL > 100 µM | RXF 631 > 100 µM | SNB-78 > 100 µM

COc1ccc(/C=C\c2cc(OC)c(OC(C)=O)c(OC)c2)cc1
inactive: DLD-1 14.2 µM | DMS-114 4.78 µM | DMS-273 5.31 µM | LXFL 529 19.7 µM | M19-MEL 8.91 µM | RXF 631 23.5 µM | SNB-78 25.5 µM | XF498 30.3 µM

CC(C)(C)NN=C1C(C)(C)C(=NNC(C)(C)C)C1(C)C
inactive: DLD-1 > 100 µM | DMS-114 > 100 µM | DMS-273 > 100 µM | LXFL 529 > 100 µM | M19-MEL > 100 µM | SNB-78 > 100 µM | XF498 > 100 µM

Cc1cn(C2CC(n3cncn3)C(C(C)O)O2)c(=O)[nH]c1=O (centres undefined)
inactive: DLD-1 > 100 µM | DMS-114 > 100 µM | DMS-273 > 100 µM | HOP-18 > 100 µM | LXFL 529 > 100 µM | M19-MEL > 100 µM | SNB-78 > 100 µM | XF498 > 100 µM

C=C(C)C1CCC2(C)CC1c1c(c(C)cc3c1[nH]c1ccccc13)O2 (centres undefined)
inactive: DLD-1 > 25 µM | DMS-114 > 25 µM | DMS-273 > 25 µM | LXFL 529 > 25 µM | M19-MEL > 25 µM | XF498 > 25 µM

O=C(O)CCSC(=O)Nc1cccc2ccccc12
inactive: DLD-1 > 100 µM | DMS-114 > 100 µM | DMS-273 > 100 µM | HOP-18 > 100 µM | LXFL 529 > 100 µM | M19-MEL > 100 µM | RXF 631 > 100 µM | SNB-78 > 100 µM | XF498 > 100 µM

C=CCC1([C@H](C)[C@@H](OC(C)=O)c2cc(OC)c(OC)c(OC)c2)C[C@@H](OC)CCC1=O (some centres undefined)
inactive: DLD-1 16.2 µM | DMS-114 12.4 µM | LXFL 529 14.3 µM | M19-MEL 15.6 µM | XF498 17.9 µM

C/C(CN1C(=O)c2ccccc2C1=O)=N\NS(C)(=O)=O
inactive: DLD-1 > 100 µM | DMS-114 > 100 µM | DMS-273 > 100 µM | HOP-18 > 100 µM | LXFL 529 > 100 µM | M19-MEL > 100 µM | SNB-78 > 100 µM | XF498 > 100 µM

CC1CCC(O)C(C(O)CC2CC(=O)N(C)C(=O)C2)C1 (centres undefined)
inactive: DLD-1 > 100 µM | DMS-114 > 100 µM | DMS-273 > 100 µM | HOP-18 > 100 µM | LXFL 529 > 100 µM | M19-MEL > 100 µM | RXF 631 > 100 µM | SNB-78 > 100 µM | XF498 > 100 µM

COC1=CC(=O)C2C(C1=O)C(c1ccc(Cl)cc1)[C@@H]2C (some centres undefined)
inactive: DLD-1 25.9 µM | DMS-114 21.5 µM | DMS-273 41 µM | HOP-18 12.2 µM | LXFL 529 17.5 µM | M19-MEL 33.7 µM | SNB-78 36.8 µM | XF498 18.3 µM

CCn1c2c(n(CC)c1=S)-c1c(n(CC)c(=S)n1CC)SSSS2
inactive: DLD-1 1.63 µM | DMS-114 15.8 µM | DMS-273 17.5 µM | HOP-18 8.85 µM | LXFL 529 2.1 µM | M19-MEL 7.78 µM | RXF 631 15.3 µM | SNB-78 11.4 µM | XF498 1.52 µM

O=C(Cc1ccccc1)NN1C(=O)C(Cl)C1c1ccc(O)cc1 (centres undefined)
inactive: DLD-1 > 100 µM | DMS-114 > 100 µM | DMS-273 > 100 µM | HOP-18 > 100 µM | M19-MEL > 100 µM

Brc1ccc2c(c1)C1(c3cc(Br)ccc3-2)c2cc(Br)ccc2-c2ccc(Br)cc21
inactive: DLD-1 > 100 µM | DMS-114 > 100 µM | DMS-273 > 100 µM | HOP-18 > 100 µM | LXFL 529 > 100 µM | M19-MEL > 100 µM | RXF 631 > 100 µM | SNB-78 > 100 µM | XF498 > 100 µM

O=C(c1ccccc1)C(c1ccccc1)C1(O)C(=O)Nc2c(Cl)ccc(Cl)c21 (centres undefined)
inactive: DLD-1 18.2 µM | DMS-114 17 µM | DMS-273 14.4 µM | HOP-18 24.2 µM | LXFL 529 17.2 µM | SNB-78 25.5 µM

CC1=C(C#N)C(N)=C2C(C)=C(C#N)C(N)=C12
inactive: DLD-1 > 100 µM | DMS-114 > 100 µM | DMS-273 > 100 µM | LXFL 529 > 100 µM | M19-MEL > 100 µM | SNB-78 > 100 µM | XF498 > 100 µM

COC(=O)c1cc(Br)c(Br)n1C
inactive: DLD-1 81.8 µM | DMS-114 > 100 µM | DMS-273 > 100 µM | HOP-18 > 100 µM | LXFL 529 > 100 µM | M19-MEL > 100 µM | RXF 631 > 100 µM | SNB-78 > 100 µM | XF498 > 100 µM

CC(C)(C)OC(=O)NC(CO)c1cccc(OCc2ccccc2)c1 (centres undefined)
inactive: DLD-1 > 100 µM | DMS-114 23.1 µM | DMS-273 53.2 µM | HOP-18 > 100 µM | LXFL 529 > 100 µM | M19-MEL > 89.7 µM | SNB-78 83.4 µM | XF498 > 100 µM

CCOC(=O)C1Oc2ccc([N+](=O)[O-])c3c2C1(O)CCC3 (centres undefined)
inactive: DLD-1 > 100 µM | DMS-114 > 100 µM | DMS-273 > 100 µM | LXFL 529 > 100 µM | M19-MEL > 100 µM | RXF 631 > 100 µM | SNB-78 > 100 µM

CCOC(=O)C(C)(c1c(C)[nH]c2ccccc12)c1c(C)[nH]c2ccccc12
inactive: DLD-1 23.7 µM | DMS-114 15.7 µM | DMS-273 14.1 µM | LXFL 529 51.4 µM | SNB-78 17.5 µM | XF498 21.8 µM

COC(=O)N1[C@H]2Cc3c(OC)c(C)c(OC)c(OC)c3[C@@H]1/C(=C\c1cc(OC)c(OC)c(C)c1OC)N(Cc1ccccc1)C2=O
inactive: DLD-1 76.9 µM | DMS-114 14.7 µM | DMS-273 13.2 µM | HOP-18 41.8 µM | LXFL 529 22 µM | M19-MEL 19.9 µM

C[N+](C)=c1nc(N2CCc3ccccc3C2)ss1.[O-][Cl+3]([O-])([O-])[O-]
inactive: DLD-1 90.4 µM | DMS-114 60.1 µM | DMS-273 > 100 µM | HOP-18 > 100 µM | LXFL 529 69.3 µM | M19-MEL > 100 µM | RXF 631 > 100 µM | SNB-78 > 100 µM

CCOC(=O)C1S/C(=N\c2ccc(Cl)c(Cl)c2)N=C1C (centres undefined)
inactive: DLD-1 25.1 µM | DMS-273 41.2 µM | HOP-18 96.8 µM | LXFL 529 34.4 µM | M19-MEL 26.2 µM | RXF 631 58.6 µM | XF498 35.6 µM
